Laboratory results taken from EP0908457B1, “3-(1,2-benzisothiazol- and isoxazol-5-Y1)-2,4(1H,3H)-pyrimidinedione or thione and 3-(1,2-benzisothiazol- and isoxazol-5-y1)-4(3H)-pyrimidinone or thione herbicidal agents” (BASF AKTIENGESELLSCHAFT, priority 1997, dated 1999).

Assays:
Format in all cases: in vivo
[1] = system: Cyperus serotinus, Rottb.; experiment: Preemergence weed control under flooded paddy conditions, CYPSE (Flatsedge); conditions: for herbicidal effect rating, CYPSE / CYPSE herbicidal rating: preemergence, rated three to four weeks after treatment; for CYPSE: preemergence weeds, herbicidal effect rating 0-9, three to four weeks after treatment
[2] = system: Monochoria vaginalis, Presl.; experiment: Preemergence weed control under flooded paddy conditions, MOOVA (Monochoria); conditions: flooded paddy; for herbicidal effect rating, MOOVA / MOOVA herbicidal rating: preemergence, rated three to four weeks after treatment; for MOOVA: preemergence weeds, herbicidal effect rating 0-9, three to four weeks after treatment
Sagittaria pygmaea, L. = experiment: Preemergence weed control under flooded paddy conditions, SAGPY (Arrowhead (Pygmaea)); conditions: flooded paddy; for herbicidal effect rating, SAGPY / SAGPY herbicidal rating: preemergence, rated three to four weeks after treatment; for SAGPY: preemergence weeds, herbicidal effect rating 0-9, three to four weeks after treatment
Cyperus iria = experiment: Preemergence weed control under flooded paddy conditions, CYPIR (Rice Flatsedge); conditions: flooded paddy; for herbicidal effect rating, CYPIR / CYPIR herbicidal rating: preemergence, rated three to four weeks after treatment; for CYPIR: preemergence weeds, herbicidal effect rating 0-9, three to four weeks after treatment
[3] = system: Echinochloa oryzoides (Ard.) Fritsch.; experiment: Preemergence weed control under flooded paddy conditions, ECHORC (Watergrass (Calif.)); conditions: flooded paddy; for herbicidal effect rating, ECHORC / ECHORC herbicidal rating: preemergence, rated three to four weeks after treatment; for ECHORC: preemergence weeds, herbicidal effect rating 0-9, three to four weeks after treatment

## Cn1c(C(F)(F)F)cc(=O)n(-c2ccc3snc(C(=O)NOCc4ccccc4)c3c2)c1=O [Example 400, 1,2-Benzisothiazole-3-carboxamide, N-(benzyloxy)-5-[3,6-dihydro-3-methyl-2,6-dioxo-4-(trifluoromethyl)-1(2H)-pyrimidinyl]-]
[1]; Rate 0.0320 kg/ha
  herbicidal effect rating, CYPSE: 0.0
[1]; Rate 0.0620 kg/ha
  herbicidal effect rating, CYPSE: 0.0
[1]; Rate 0.1250 kg/ha
  herbicidal effect rating, CYPSE: 0.0
[1]; Rate 0.2500 kg/ha
  herbicidal effect rating, CYPSE: 0.0
[2]; Rate 0.0320 kg/ha
  herbicidal effect rating, MOOVA: 6.0
[2]; Rate 0.0620 kg/ha
  herbicidal effect rating, MOOVA: 7.0
[2]; Rate 0.1250 kg/ha
  herbicidal effect rating, MOOVA: 7.0
[2]; Rate 0.2500 kg/ha
  herbicidal effect rating, MOOVA: 9.0
Sagittaria pygmaea, L.; Rate 0.0320 kg/ha
  herbicidal effect rating, SAGPY: 0.0
Sagittaria pygmaea, L.; Rate 0.0620 kg/ha
  herbicidal effect rating, SAGPY: 0.0
Sagittaria pygmaea, L.; Rate 0.1250 kg/ha
  herbicidal effect rating, SAGPY: 0.0
Sagittaria pygmaea, L.; Rate 0.2500 kg/ha
  herbicidal effect rating, SAGPY: 0.0
Cyperus iria; Rate 0.0320 kg/ha
  herbicidal effect rating, CYPIR: 3.0
Cyperus iria; Rate 0.0620 kg/ha
  herbicidal effect rating, CYPIR: 3.0
Cyperus iria; Rate 0.1250 kg/ha
  herbicidal effect rating, CYPIR: 9.0
Cyperus iria; Rate 0.2500 kg/ha
  herbicidal effect rating, CYPIR: 9.0
[3]; Rate 0.0320 kg/ha
  herbicidal effect rating, ECHORC: 0.0
[3]; Rate 0.0620 kg/ha
  herbicidal effect rating, ECHORC: 0.0
[3]; Rate 0.1250 kg/ha
  herbicidal effect rating, ECHORC: 0.0
[3]; Rate 0.2500 kg/ha
  herbicidal effect rating, ECHORC: 0.0

## Cn1c(C(F)(F)F)cc(=O)n(-c2ccc3snc(COC(=O)c4ccno4)c3c2)c1=O [Example 475, 2,4(1H,3H)-Pyrimidinedione, 3-[3-(hydroxymethyl)-1,2-benzisothiazol-5-yl]-1-methyl-6-(trifluoromethyl)-, 5-isoxazolecarboxylate (ester)]
[1]; 0.0320 kg/ha
  CYPSE herbicidal rating: 0.0
[1]; 0.1250 kg/ha
  CYPSE herbicidal rating: 5.0
[1]; 0.2500 kg/ha
  CYPSE herbicidal rating: 7.0
[2]; 0.0320 kg/ha
  MOOVA herbicidal rating: 9.0
[2]; 0.0620 kg/ha
  MOOVA herbicidal rating: 9.0
[2]; 0.1250 kg/ha
  MOOVA herbicidal rating: 9.0
[2]; 0.2500 kg/ha
  MOOVA herbicidal rating: 9.0
Sagittaria pygmaea, L.; 0.0320 kg/ha
  SAGPY herbicidal rating: 0.0
Sagittaria pygmaea, L.; 0.0620 kg/ha
  SAGPY herbicidal rating: 4.0
Sagittaria pygmaea, L.; 0.1250 kg/ha
  SAGPY herbicidal rating: 6.0
Sagittaria pygmaea, L.; 0.2500 kg/ha
  SAGPY herbicidal rating: 7.0
Cyperus iria; 0.0320 kg/ha
  CYPIR herbicidal rating: 4.0
Cyperus iria; 0.0620 kg/ha
  CYPIR herbicidal rating: 6.0
Cyperus iria; 0.1250 kg/ha
  CYPIR herbicidal rating: 9.0
Cyperus iria; 0.2500 kg/ha
  CYPIR herbicidal rating: 9.0
[3]; 0.0320 kg/ha
  ECHORC herbicidal rating: 0.0
[3]; 0.0620 kg/ha
  ECHORC herbicidal rating: 0.0
[3]; 0.1250 kg/ha
  ECHORC herbicidal rating: 2.0
[3]; 0.2500 kg/ha
  ECHORC herbicidal rating: 3.0

## COc1ccc(CC(=O)OCc2nsc3ccc(-n4c(=O)cc(C(F)(F)F)n(C)c4=O)cc23)cc1OC [Example 502, 2,4(1H,3H)-Pyrimidinedione, 3-[3-(hydroxymethyl)-1,2-benzisothiazol-5-yl]-1-methyl-6-(trifluoromethyl)-, (3,4-dimethoxyphenyl)acetate (ester)]
[1]; 0.0320 kg/ha
  CYPSE herbicidal rating: 0.0
[1]; 0.0620 kg/ha
  CYPSE herbicidal rating: 2.0
[1]; 0.2500 kg/ha
  CYPSE herbicidal rating: 5.0
[2]; 0.0320 kg/ha
  MOOVA herbicidal rating: 6.0
[2]; 0.0620 kg/ha
  MOOVA herbicidal rating: 6.0
[2]; 0.1250 kg/ha
  MOOVA herbicidal rating: 7.0
[2]; 0.2500 kg/ha
  MOOVA herbicidal rating: 9.0
Sagittaria pygmaea, L.; 0.0320 kg/ha
  SAGPY herbicidal rating: 0.0
Sagittaria pygmaea, L.; 0.0620 kg/ha
  SAGPY herbicidal rating: 2.0
Sagittaria pygmaea, L.; 0.1250 kg/ha
  SAGPY herbicidal rating: 5.0
Sagittaria pygmaea, L.; 0.2500 kg/ha
  SAGPY herbicidal rating: 9.0
Cyperus iria; 0.0320 kg/ha
  CYPIR herbicidal rating: 4.0
Cyperus iria; 0.0620 kg/ha
  CYPIR herbicidal rating: 6.0
Cyperus iria; 0.1250 kg/ha
  CYPIR herbicidal rating: 9.0
Cyperus iria; 0.2500 kg/ha
  CYPIR herbicidal rating: 9.0
[3]; 0.0320 kg/ha
  ECHORC herbicidal rating: 3.0
[3]; 0.0620 kg/ha
  ECHORC herbicidal rating: 3.0
[3]; 0.1250 kg/ha
  ECHORC herbicidal rating: 5.0
[3]; 0.2500 kg/ha
  ECHORC herbicidal rating: 7.0

## Cn1c(C(F)(F)F)cc(=O)n(-c2ccc3snc(C(=O)c4ccccc4)c3c2)c1=O [Example 449, 2,4(1,3H)-Pyrimidinedione, 3-(3-benzoyl-1,2-benzisothiazol-5-yl)-1-methyl-6-(trifluoromethyl)-]
[1]; 0.0320 kg/ha
  CYPSE: 2.0
[1]; 0.2500 kg/ha
  CYPSE: 4.0
[2]; 0.0320 kg/ha
  MOOVA: 7.0
[2]; 0.0620 kg/ha
  MOOVA: 7.0
[2]; 0.1250 kg/ha
  MOOVA: 9.0
[2]; 0.2500 kg/ha
  MOOVA: 9.0
Sagittaria pygmaea, L.; 0.0320 kg/ha
  SAGPY: 2.0
Sagittaria pygmaea, L.; 0.0620 kg/ha
  SAGPY: 4.0
Sagittaria pygmaea, L.; 0.1250 kg/ha
  SAGPY: 4.0
Sagittaria pygmaea, L.; 0.2500 kg/ha
  SAGPY: 6.0
Cyperus iria; 0.0320 kg/ha
  CYPIR: 4.0
Cyperus iria; 0.0620 kg/ha
  CYPIR: 5.0
Cyperus iria; 0.1250 kg/ha
  CYPIR: 8.0
Cyperus iria; 0.2500 kg/ha
  CYPIR: 9.0
[3]; 0.0320 kg/ha
  ECHORC: 5.0
[3]; 0.0620 kg/ha
  ECHORC: 7.0
[3]; 0.1250 kg/ha
  ECHORC: 9.0
[3]; 0.2500 kg/ha
  ECHORC: 9.0
